Where two headings read alike, the source gives them in different places. Where a SMILES comes first, the peptide text is derived from it. Bridges are numbered along the chain shown (N, C = ends).

Assay [1] deals with T1, Nav1.7 channels (Homo sapiens, UniProt Q15858).
T1 construct: expressed in transfected cells; host or cells: HEK293
The assay can be described thus: Whole-cell patch clamp on Nav1.7 overexpressing HEK293 cells. The assay is classed as cell-based. As to conditions: for inhibition at 0.3 µM: HEK293, 300 nM, n=6, read-out: current inhibition. The method, then:
The recording electrode used in the present example is a glass microelectrode, which is prepared as follows: The glass electrode blanks (outer diameter of 1.50 mm, inner diameter of 0.84 mm) are prepared into single-tube glass microelectrodes with tip diameters of 1-2 μm in four steps using the P-1000 Microelectrode Horizontal Puller for subsequent experiments. Be careful not to touch the heated platinum sheet in the center when pulling the electrode, and be careful not to touch the tip of the pulled electrode to prevent the tip from breaking. Since the tip of the glass microelectrode is highly susceptible to dust attraction, it is generally prepared for use now and should not be left overnight.
Glass microelectrodes are used as follows: rinse clean the glass microelectrodes before use; then put all the glass microelectrodes in a large beaker; add anhydrous ethanol so that the glass microelectrodes are completely immersed in anhydrous ethanol; and place the beaker in an ultrasonic cleaner with ultrasonic vibration for 30 min. Subsequently, pour out the anhydrous ethanol; rinse out the glass microelectrode with ultrapure water 3-4 times; use another small beaker to cover the microelectrode so as not to contaminate the electrode with dust; put the glass microelectrode into the oven for drying; and put the glass microelectrode into a clean box for spare use after drying.
In the patch clamp experiments, the measured sodium currents are corrected for leakage currents, and the primary data of the experiments are recorded using Clampfit 10.6, and the data acquisition is performed by the pCLAMP software. Three to five sweeps are selected for analysis, (sweep, which is a term used in patch clamp software and consists of a series of sampling points) in which the current is in a stable state before the addition of the polypeptide. The average value of the peak current is thus calculated as the control current amplitude. Then 3-5 sweeps in which the current is in a stable state after the addition of polypeptide are selected and analyzed, and the average value of the residual peak current is calculated as the residual current amplitude.
The electrical stimulation effect of polypeptides PPN-01 to PPN-16 on Nav1.7 overexpressing HEK293 cells is studied using the glass microelectrodes obtained from the above preparations and the whole-cell patch clamp techniques (n=1). In a voltage-clamp mode, the clamp voltage is kept at −90 mV; a square-wave stimulus depolarized from −90 mV to +40 mV with a duration of 30 ms is applied; the concentration of each dosing (polypeptide) is 300 nM; and validation is repeated for the six polypeptides that show a significant effect (n=2).
In a voltage-clamp mode, the clamp voltage is kept at −90 m V and a square-wave stimulus depolarized from −90 mV to +40 mV with a duration of 30 ms is applied.
2. The electrical stimulation effect of the polypeptide PPN-01 provided in Example 1 on Nav1.4, Nav1.5, Nav1.6, and Nav1.7 overexpressing HEK293 cells is studied using the glass microelectrodes obtained from the above preparations and employing the whole-cell patch clamp techniques (n=5). In a voltage-clamp mode, the clamp voltage is kept at −90 mV; a square-wave stimulus depolarized from −90 mV to +40 mV with a duration of 30 ms is applied; and a concentration of each dosing (polypeptide) is 300 nM.
3. After establishing whole-cell patch clamp configuration using glass microelectrodes filled with internal electrode solution and HEK293 cells overexpressing Nav1.4, Nav1.5, Nav1.6, or Nav1.7, the polypeptides provided in Example 1 are applied separately. In a voltage-clamp mode, the clamp voltage is kept at −90 m V and a square-wave stimulus depolarized from −90 m V to +40 m V with a duration of 30 ms is applied. […]
For orientation: In patch-clamp work, channel activity is measured electrically.

For assay [2], the system named is sciatic nerve in rats. Put plainly: Compound action potential (CAP) of the sciatic nerve in rats. The assay is classed as in vivo, Sprague-Dawley (SD) rats. The settings on record: 20 μL of 30, 100, 300 nM on sciatic nerve; before and after needling; vs negative control group (p<0.05). The method, then: Four SPF-grade healthy Sprague-Dawley (SD) rats are randomly selected, half males and half females, weighing 180˜200 g, 6˜8 weeks old. The rats are first acclimatized and fed for 1 week, fasted for 12 h before the experiment, with free access to water.
Rats weighing between 180 g and 200 g are taken and anesthetized with 7% chloral hydrate solution at a concentration of 0.4 mL/100 g. […] Then, the fully anesthetized rats are placed on the operating table so that their backs are facing upwards and their paws are held in place with a string. The skin and connective tissue of the leg are cut sequentially, and the muscles between the biceps femoris and the gluteus superficialis are bluntly-dissected. […]
Observations are performed on rats in the polypeptide PPN-01 group and in the negative control drug lidocaine group, and the effect of each concentration of polypeptide PPN-01 on the peak amplitude of the positive and negative phases of the CAP in the sciatic nerve of rats is assessed by the inhibition rate. […]
Four to six CAPs within 2 min after each recording time period are selected for analysis, and the mean peak amplitude is calculated as the representative CAP peak amplitude and time course for each group, with the peak amplitude of the CAP being the difference between the baseline and the peak CAP.

T1 sequence (Q15858 whole entry): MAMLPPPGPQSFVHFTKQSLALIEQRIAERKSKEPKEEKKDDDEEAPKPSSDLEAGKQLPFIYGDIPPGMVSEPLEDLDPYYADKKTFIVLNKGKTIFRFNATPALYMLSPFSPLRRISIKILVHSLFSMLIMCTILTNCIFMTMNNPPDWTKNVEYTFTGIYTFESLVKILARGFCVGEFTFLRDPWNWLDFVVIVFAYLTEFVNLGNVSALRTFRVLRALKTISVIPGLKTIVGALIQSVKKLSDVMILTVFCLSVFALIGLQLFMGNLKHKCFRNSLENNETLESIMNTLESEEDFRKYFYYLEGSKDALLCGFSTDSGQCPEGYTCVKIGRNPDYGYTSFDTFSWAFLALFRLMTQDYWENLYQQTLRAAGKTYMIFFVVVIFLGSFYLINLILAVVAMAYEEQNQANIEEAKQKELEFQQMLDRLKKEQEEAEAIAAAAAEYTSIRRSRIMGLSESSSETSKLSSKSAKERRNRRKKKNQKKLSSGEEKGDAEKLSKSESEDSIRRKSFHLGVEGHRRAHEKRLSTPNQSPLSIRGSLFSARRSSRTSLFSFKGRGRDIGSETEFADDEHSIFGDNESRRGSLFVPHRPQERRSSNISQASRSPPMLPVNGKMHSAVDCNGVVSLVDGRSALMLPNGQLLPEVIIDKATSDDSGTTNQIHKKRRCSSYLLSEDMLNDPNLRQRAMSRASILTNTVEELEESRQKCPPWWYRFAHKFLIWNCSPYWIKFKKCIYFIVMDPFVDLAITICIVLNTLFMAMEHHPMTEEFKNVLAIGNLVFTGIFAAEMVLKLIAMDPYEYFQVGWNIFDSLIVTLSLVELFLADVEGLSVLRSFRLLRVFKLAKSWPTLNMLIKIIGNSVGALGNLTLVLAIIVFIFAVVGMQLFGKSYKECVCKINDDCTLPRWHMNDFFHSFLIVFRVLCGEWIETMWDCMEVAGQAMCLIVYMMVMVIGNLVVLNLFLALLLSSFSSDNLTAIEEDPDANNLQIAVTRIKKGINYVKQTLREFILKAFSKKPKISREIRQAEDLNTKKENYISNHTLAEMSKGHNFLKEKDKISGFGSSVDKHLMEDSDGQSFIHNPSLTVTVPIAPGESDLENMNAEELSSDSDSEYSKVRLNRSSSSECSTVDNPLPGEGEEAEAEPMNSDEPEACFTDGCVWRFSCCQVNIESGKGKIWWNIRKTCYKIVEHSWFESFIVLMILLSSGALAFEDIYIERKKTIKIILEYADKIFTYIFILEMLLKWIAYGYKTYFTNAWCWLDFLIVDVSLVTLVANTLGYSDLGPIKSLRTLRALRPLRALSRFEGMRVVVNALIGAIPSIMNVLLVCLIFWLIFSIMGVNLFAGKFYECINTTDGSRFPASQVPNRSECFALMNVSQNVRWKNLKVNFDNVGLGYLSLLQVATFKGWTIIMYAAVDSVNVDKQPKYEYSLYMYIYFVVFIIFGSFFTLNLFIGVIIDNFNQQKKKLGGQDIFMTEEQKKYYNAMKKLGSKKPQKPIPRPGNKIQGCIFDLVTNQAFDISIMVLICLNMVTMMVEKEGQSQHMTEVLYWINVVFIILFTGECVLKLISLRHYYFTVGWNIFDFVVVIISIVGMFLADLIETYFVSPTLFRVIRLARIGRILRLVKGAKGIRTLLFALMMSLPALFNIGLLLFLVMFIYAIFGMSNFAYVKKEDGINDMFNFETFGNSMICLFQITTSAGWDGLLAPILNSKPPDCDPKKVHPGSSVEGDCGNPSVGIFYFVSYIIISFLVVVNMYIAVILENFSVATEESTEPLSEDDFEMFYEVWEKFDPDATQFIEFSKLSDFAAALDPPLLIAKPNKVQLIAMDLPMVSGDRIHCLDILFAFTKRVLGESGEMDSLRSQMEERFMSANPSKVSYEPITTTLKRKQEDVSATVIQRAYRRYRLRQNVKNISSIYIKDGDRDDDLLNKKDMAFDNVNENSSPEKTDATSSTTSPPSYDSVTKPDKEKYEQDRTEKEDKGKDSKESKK

The inhibition is the percentage by which the read-out fell short of the control. Usually Hill coefficient stands for the slope factor of the fitted curve. With `CSCC[C@@H]1NC(=O)CNC(=O)[C@H](CCC(=O)O)NC(=O)[C@@H]2CSSC[C@H](NC(=O)[C@H](Cc3ccc(O)cc3)NC(C)=O)C(=O)N[C@@H](CCC(N)=O)C(=O)N[C@@H](CCCCN)C(=O)N[C@@H](Cc3ccccc3)C(=O)N[C@@H](CC(C)C)C(=O)N[C@@H](C)C(=O)N3CCC[C@H]3C(=O)N[C@H]3CSSC[C@H](NC(=O)[C@H](CCC(=O)O)NC1=O)C(=O)N[C@@H](CCCCN)C(=O)N[C@@H](CC(C)C)C(=O)N[C@@H](Cc1c[nH]c4ccccc14)C(=O)N[C@H](C(=O)N[C@@H](CCCCN)C(=O)N[C@@H](CCCCN)C(=O)N[C@@H](CCCCN)C(=O)N[C@@H](CC(C)C)C(=O)N[C@@H](Cc1c[nH]c4ccccc14)C(N)=O)CSSC[C@H](NC(=O)[C@H](CCCCN)NC(=O)[C@H](CCCNC(=N)N)NC(=O)[C@H](CCC(=O)O)NC(=O)[C@H](CO)NC(=O)[C@H](CC(=O)O)NC3=O)C(=O)N2` [PPN-01] (Ac-YCQKFLAPCDSERKCCEGMECKLWCKKKLW-NH2; disulfide 2-16, 9-21, 15-25), the “inhibition of Nav1.7 overexpressing HEK293 cells (current traces)” value in assay [1] (300 nM polypeptide, clamp −90 mV, depolarized to +40 mV, 30 ms, vs negative control, n=1 (n=2 for six polypeptides)) is on record as “significant inhibition”. In addition, in assay [1] (300 nM, −90 mV to +40 mV, 30 ms, n=5), the “inhibition effect on Nav1.7 overexpressing HEK293 cells” value is listed as “significant inhibition effect”. Also, the inhibition at 0.3 µM in assay [1] (membrane potential +40 mV) is 89.6%; in assay [1] (membrane potential −30 mV), 73.6%; in assay [1] (membrane potential −40 mV), 43.6%. The molecule also yielded a Hill coefficient in assay [1] (concentration-response of Nav1.7 peak current inhibition) of 1.18. Further, in assay [2], the “peak amplitude of CAP (positive and negative phases)” value is reported as “significantly decreased”.
